# Reference: US11000033B2, “Ketone or oxime compound, and herbicide” (NISSAN CHEMICAL CORPORATION, priority 2014, dated 2021)
# Tests used:
# Format in all cases: in vivo
# Scirpus juncoides [1] = test: Test Example 1: herbicidal activity, application before weed generation in submerged conditions (symbol B); details: application herbicide amount 320 g/ha
# Procedure, shortened: (§1)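 Mixed weed seeds sown in alluvial soil under 4 cm of water, with rice seedlings at the 2.5-leaf stage added. Same-day treatment: emulsion diluted to a set herbicide amount onto the water. Three weeks at 25–30 °C, then graded on a six-step scale.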
# Monochoria vaginalis = test: Test Example 1: herbicidal activity, application before weed generation in submerged conditions (symbol C); details: application herbicide amount 320 g/ha
# Procedure, shortened: as §1
# Scirpus juncoides [2] = test: Test Example 2: herbicidal activity, application during weed generation in submerged conditions (symbol B); details: Table 23; application herbicide amount 320 g/ha; grade 0-5 by criteria of Test Example 1
# Procedure, shortened: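 Compound was applied as a water-diluted emulsion into the standing water of flooded pots (4 cm) once co-sown weeds reached one to two leaves. Greenhouse temperature was 25° C. to 30° C., soil was alluvial, and each species was rated visually after 3 weeks.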
# Avena fatua = test: Test Example 4: herbicidal effect by soil treatment (symbol I); details: application herbicide amount 320 g/ha
# Procedure, shortened: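 Seeds were sown in sterilized diluvial soil, covered with about 1.5 cm of soil, and the soil surface was sprayed with a water-diluted emulsion of the compound at a predetermined rate. Plants grew in a greenhouse at 25° C. to 30° C.; effects were scored visually 3 weeks after application.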
# corn [3] = test: Test Example 4: effect on crop by soil treatment (symbol c); details: application herbicide amount 320 g/ha
# Procedure, shortened: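 Crop seed is sown in spots together with several weed species in a box of sterilized diluvial soil. It is covered by about 1.5 cm of soil and kept in a greenhouse held between 25° C. and 30° C.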
# rice = test: Test Example 4: effect on crop by soil treatment (symbol b); details: application herbicide amount 320 g/ha
# Procedure, shortened: (§2)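 Sterilized diluvial soil, spot sowing, ~1.5 cm soil cover; greenhouse 25–30° C.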
# rapeseed = test: Test Example 4: effect on crop by soil treatment (symbol g); details: application herbicide amount 320 g/ha
# Procedure, shortened: as §2
# Digitaria ciliaris = test: Test Example 5: herbicidal effect by foliage application, plastic box (symbol F); details: 320 g/ha, 3 weeks after application
# Procedure, shortened: (§3)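 Emulsion formulation, diluted with water to the intended rate, was applied uniformly to leaves by small sprayer. Recipients were 14-day greenhouse-grown seedlings (25° C. to 30° C.). Assessment followed at 3 weeks.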
# Lolium multiflorum Lam. = test: Test Example 5: herbicidal effect by foliage application, plastic box (symbol K); details: 320 g/ha, 3 weeks after application
# Procedure, shortened: as §3
# Chenopodium album = test: Test Example 5: herbicidal effect by foliage application, plastic box (symbol O); details: 320 g/ha, 3 weeks after application
# Procedure, shortened: as §3
# Galium spurium = test: Test Example 5: herbicidal effect by foliage application, plastic box (symbol Q); details: 320 g/ha, 3 weeks after application
# Procedure, shortened: as §3
# Veronica persica = test: Test Example 5: herbicidal effect by foliage application, plastic box (symbol R); details: 320 g/ha, 3 weeks after application
# Procedure, shortened: as §3
# corn [4] = test: Test Example 5: effect on crop by foliage application, plastic box (symbol c); details: 320 g/ha, 3 weeks after application
# Procedure, shortened: (§4)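 Foliage-application test plants come from spot sowing in sterilized diluvial soil under a soil layer of about 1.5 cm, grown at 25° C. to 30° C. in a greenhouse.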
# soybean = test: Test Example 5: effect on crop by foliage application, plastic box (symbol d); details: 320 g/ha, 3 weeks after application
# Procedure, shortened: as §4
Compound,"Herbicidal effect grade, B: Scirpus juncoides (Scirpus juncoides [1])","Herbicidal effect grade, C: Monochoria vaginalis (Monochoria vaginalis)","Herbicidal effect grade, B: Scirpus juncoides (Scirpus juncoides [2])","Herbicidal effect grade, I: Avena fatua (Avena fatua)","Effect on crop grade, c: corn (corn [3])","Effect on crop grade, b: directly sowed rice plant (rice)","Effect on crop grade, g: rapeseed (rapeseed)","F: Digitaria ciliaris, herbicidal effect (criteria of Test Example 1) (Digitaria ciliaris)","K: Lolium multiflorum Lam., herbicidal effect (criteria of Test Example 1) (Lolium multiflorum Lam.)","O: Chenopodium album, herbicidal effect (criteria of Test Example 1) (Chenopodium album)","Q: Galium spurium, herbicidal effect (criteria of Test Example 1) (Galium spurium)","R: Veronica persica, herbicidal effect (criteria of Test Example 1) (Veronica persica)","c: corn, effect on crop (criteria of Test Example 1) (corn [4])","d: soybean, effect on crop (criteria of Test Example 1) (soybean)"
CON=C(C)CC1CC(O)=C(c2c(C)cc(-c3ccc(F)c(Cl)c3)cc2C)C1=O (stereo not shown) [6-085],3 (Herbicidal ratio of 40% or higher and lower than 70%),0 (Herbicidal ratio of 5% or lower (almost no effect)),4 (Herbicidal ratio of 70% or higher and lower than 90%),5 (Herbicidal ratio of 90% or more (almost completely withered)),1 (Herbicidal ratio of 5% or higher and lower than 20%),1 (Herbicidal ratio of 5% or higher and lower than 20%),4 (Herbicidal ratio of 70% or higher and lower than 90%),5 (Herbicidal ratio of 90% or more (almost completely withered)),5 (Herbicidal ratio of 90% or more (almost completely withered)),5 (Herbicidal ratio of 90% or more (almost completely withered)),4 (Herbicidal ratio of 70% or higher and lower than 90%),4 (Herbicidal ratio of 70% or higher and lower than 90%),3 (Herbicidal ratio of 40% or higher and lower than 70%),5 (Herbicidal ratio of 90% or more (almost completely withered))
CON=C(C)CC1CC(O)=C(c2c(C)cc(-c3ccc(Cl)cc3Cl)cc2C)C1=O (stereo not shown) [6-088],1 (Herbicidal ratio of 5% or higher and lower than 20%),0 (Herbicidal ratio of 5% or lower (almost no effect)),2 (Herbicidal ratio of 20% or higher and lower than 40%),5 (Herbicidal ratio of 90% or more (almost completely withered)),0 (Herbicidal ratio of 5% or lower (almost no effect)),0 (Herbicidal ratio of 5% or lower (almost no effect)),3 (Herbicidal ratio of 40% or higher and lower than 70%),5 (Herbicidal ratio of 90% or more (almost completely withered)),5 (Herbicidal ratio of 90% or more (almost completely withered)),5 (Herbicidal ratio of 90% or more (almost completely withered)),4 (Herbicidal ratio of 70% or higher and lower than 90%),5 (Herbicidal ratio of 90% or more (almost completely withered)),2 (Herbicidal ratio of 20% or higher and lower than 40%),5 (Herbicidal ratio of 90% or more (almost completely withered))
